Experimental data reported in US9115169B2, “Method of treating tumors” (Lytix Biopharma AS, priority 2000, dated 2015).
≈ marks a conversion by molar mass, not a printed value. Read-outs that look alike come from different tables or passages of the source. Where a SMILES comes first, the peptide text is derived from it. [ ]: non-standard residue; d: D form. The star is where a group is joined. Bip = N[C@@H](Cc1ccc(-c2ccccc2)cc1)C(=O)O; 2Nal = N[C@@H](Cc1ccc2ccccc2c1)C(=O)O; Cha = N[C@@H](CC1CCCCC1)C(=O)O; βNA = c1ccc2cc(N*)ccc2c1; OBn = c1ccc(CO*)cc1

Key:
[1] = tested on: Escherichia coli ATCC 25922
[2] = tested on: Staphylococcus aureus ATCC 25923
[3] = tested on: MRSA ATCC 33591
[4] = tested on: MRSE ATCC 27626
[5] = tested on: Escherichia coli ATCC 25922; conditions: ATCC 25922
[6] = tested on: Staphylococcus aureus ATCC 25923; conditions: ATCC 25923
[7] = tested on: MRSA ATCC 33591; remark: listed apart in the source
[8] = tested on: MRSE ATCC 27626; remark: listed apart in the source
[9] = tested on: P. aeruginosa

Compound | MIC E. coli ([1]; ATCC 25922) | MIC S. aureus ([2]; ATCC 25923) | MIC MRSA ([3]; ATCC 33591) | MIC MRSE ([4]; ATCC 27626) | MIC P. aerug. [9] | MBC E. coli [5] | MBC S. aureus [6] | MBC MRSA [7] | MBC MRSE [8] | further results
N=C(N)NCCC[C@H](NC(=O)[C@H](Cc1ccc(O)cc1)NC(=O)[C@H](CCCNC(=N)N)NC(=O)[C@H](Cc1ccc2ccccc2c1)NC(=O)[C@@H](N)CCCNC(=N)N)C(=O)N[C@@H](Cc1ccc2ccccc2c1)C(N)=O [Arg-(2-Nal)-Arg-Tyr-Arg-(2-Nal)NH2] (H-R[2Nal]RYR[2Nal]-NH2; N-terminus assumed) | 10 µg/mL (≈ 9.59 µM) | 5 µg/mL (≈ 4.79 µM) | 2.5 µg/mL (≈ 2.4 µM) | 2.5 µg/mL (≈ 2.4 µM) | – | 15 µg/mL (≈ 14.4 µM) | 5 µg/mL (≈ 4.79 µM) | 5 µg/mL (≈ 4.79 µM) | 2.5 µg/mL (≈ 2.4 µM) | –
N=C(N)NCCC[C@H](NC(=O)[C@@H](N)Cc1ccc(-c2ccccc2)cc1)C(=O)OCc1ccccc1 [BipR-OBzl] (H-[Bip]-Arg-OBn; N-terminus assumed) | 150.0 µg/mL (≈ 308 µM) | 5.0 µg/mL (≈ 10.3 µM) | 5.0 µg/mL (≈ 10.3 µM) | 5.0 µg/mL (≈ 10.3 µM) | 100.0 µg/mL (≈ 205 µM) | – | – | – | – | –
COC(=O)[C@H](CCCNC(=N)N)NC(=O)[C@@H](N)Cc1ccc(-c2ccccc2)cc1 [BipR-OMe] (H-[Bip]-Arg-OMe; N-terminus assumed) | >300.0 µg/mL | 150.0 µg/mL (≈ 365 µM) | 50.0 µg/mL (≈ 122 µM) | 50.0 µg/mL (≈ 122 µM) | >300.0 µg/mL | – | – | – | – | –
N=C(N)NCCC[C@H](NC(=O)[C@@H](N)CC1CCCCC1)C(=O)OCc1ccccc1 [ChxAR-OBzl] (H-[Cha]-Arg-OBn; N-terminus assumed) | 300.0 µg/mL (≈ 718 µM) | 50 to 100 µg/mL | 25 to 37.5 µg/mL | 25.0 µg/mL (≈ 59.9 µM) | >300.0 µg/mL | – | – | – | – | –
N=C(N)NCCC[C@H](NC(=O)[C@@H](N)Cc1ccccc1)C(=O)Nc1ccc2ccccc2c1 [FRβNA] (H-Phe-Arg-βNA) | – | – | – | – | – | – | – | – | – | Minimum inhibitory concentration E. coli ([1]; Table 9): >150 µg/mL; Minimum inhibitory concentration S. aureus ([2]; Table 9): 5 µg/mL (≈ 11.2 µM); Minimum inhibitory concentration MRSA ([3]; Table 9): 12.5 µg/mL (≈ 28 µM); Minimum inhibitory concentration MRSE ([4]; Table 9): 5 µg/mL (≈ 11.2 µM); Minimum inhibitory concentration P. aeruginosa ([9]; Table 9): >300 µg/mL
NCCCC[C@H](N)C(=O)O[C@@H](Cc1c[nH]c2ccccc12)C(=O)OCc1ccccc1 [Kψ(COO)WOBzl] | – | – | – | – | – | – | – | – | – | Minimum inhibitory concentration E. coli ([1]; ATCC 25922): 150 µg/mL (≈ 354 µM); Minimum inhibitory concentration S. aureus ([2]; ATCC 25923): 50 µg/mL (≈ 118 µM); Minimum inhibitory concentration MRSA ([3]; ATCC 33591): 100 µg/mL (≈ 236 µM); Minimum inhibitory concentration MRSE ([4]; ATCC 27626): 37.5 µg/mL (≈ 88.5 µM); Minimum inhibitory concentration P. aeruginosa [9]: 300 µg/mL (≈ 708 µM)
NCCCC[C@H](N)C(=O)O[C@H](Cc1c[nH]c2ccccc12)C(=O)OCc1ccccc1 [Kψ(COO)wOBzl] | – | – | – | – | – | – | – | – | – | Minimum inhibitory concentration E. coli ([1]; ATCC 25922): 150 µg/mL (≈ 354 µM); Minimum inhibitory concentration S. aureus ([2]; ATCC 25923): 50 µg/mL (≈ 118 µM); Minimum inhibitory concentration MRSA ([3]; ATCC 33591): 100 µg/mL (≈ 236 µM); Minimum inhibitory concentration MRSE ([4]; ATCC 27626): 37.5 µg/mL (≈ 88.5 µM); Minimum inhibitory concentration P. aeruginosa [9]: 300 µg/mL (≈ 708 µM)
COC(=O)[C@H](CCCNC(=N)N)NC(=O)[C@H](Cc1c[nH]c2ccccc12)NC(=O)[C@@H](N)CCCNC(=N)N [RWR-OMe, H-L-Arg-L-Trp-L-Arg-OMe] (H-Arg-Trp-Arg-OMe) | – | – | – | – | – | >200 (>200) μg/ml | >200 (>200) μg/ml | >200 (>200) μg/ml | 200 µg/mL (≈ 377 µM) | –

Second part, led by results:

MIC E. coli ([1]; ATCC 25922) | MIC S. aureus ([2]; ATCC 25923) | MIC MRSA ([3]; ATCC 33591) | MIC MRSE ([4]; ATCC 27626) | MIC P. aerug. [9] | Compound | MBC E. coli [5] | MBC S. aureus [6] | MBC MRSA [7] | MBC MRSE [8] | further results
– | – | – | – | >300.0 µg/mL | N=C(N)NCCC[C@H](NC(=O)[C@@H](N)Cc1ccccc1)C(=O)OCc1ccccc1 [FR-Obzl] (H-Phe-Arg-OBn; N-terminus assumed) | – | – | – | – | –
>200 (>200) μg/ml | 50 (50) μg/ml | 25 µg/mL (≈ 55.5 µM) | 20 (20) μg/ml | – | N=C(N)NCCC[C@H](N)C(=O)N[C@@H](Cc1c[nH]c2ccccc12)C(=O)OCc1ccccc1 [RW OBz] (H-Arg-Trp-OBn) | >200 (>200) μg/ml | 50 (50) μg/ml | 50 µg/mL (≈ 111 µM) | 20 (20) μg/ml | –
75 µg/mL (≈ 94.6 µM) | 5 µg/mL (≈ 6.31 µM) | 5 µg/mL (≈ 6.31 µM) | 2.5 (2.5) μg/ml | – | N=C(N)NCCC[C@H](NC(=O)[C@H](Cc1c[nH]c2ccccc12)NC(=O)[C@@H](N)CCCNC(=N)N)C(=O)N[C@@H](Cc1c[nH]c2ccccc12)C(=O)OCc1ccccc1 [RWRW-OBzl, H-L-Arg-L-Trp-L-Arg-L-Trp-OBzl] (H-RWRW-OBn) | 100 µg/mL (≈ 126 µM) | 5 to 10 µg/mL | 5 to 10 µg/mL | 2.5 (2.5) μg/ml | –
– | 75 µg/mL (≈ 105 µM) | – | – | – | COC(=O)[C@H](CCCNC(=N)N)NC(=O)[C@H](Cc1c[nH]c2ccccc12)NC(=O)[C@H](Cc1c[nH]c2ccccc12)NC(=O)[C@@H](N)CCCNC(=N)N [RWWR-OMe, H-L-Arg-L-Trp-L-Trp-L-Arg-OMe] (H-RWWR-OMe) | >200 (>200) μg/ml | 100 to 200 µg/mL | 100 to 200 µg/mL | 20 (20) μg/ml | –
